# Legend:
# Format in all cases: biochemical
# [1] = molecular target: T1, human factor IIa (human alpha-thrombin) (Homo sapiens, UniProt P00734); test: Inhibition constants for human factor IIa, chromogenic substrate assay; details: 25° C., Pefachrome tPA substrate, average of at least three determinations; read-out: Ki h FIIa
# T1 construct: human alpha-thrombin from Enzyme Research Laboratories; purchased Enzyme Research Laboratories
# Protocol: (§1) The inhibitory effect against the individual purified enzymes was determined in analogy to a previously disclosed method (Stürzebecher et al., J. Med. Chem., 40, 3091-3099 (1997)).
# (§2) 200 μL of TBS (0.05 M trishydroxymethylaminomethane; 0.154 M NaCl, 2% ethanol, pH 8.0)
# (§3) The release of p-nitroaniline (p-NA, the chromogenic product of the proteolytic activity), was determined by change in absorbance at 405 nm. The equilibrium rates were used to calculate the inhibitor/enzyme dissociation constant (Ki values) by parameter fitting in accordance with the rate equation for competitive inhibition using GraFit (version 4 from Erithacus). The results are reported as Ki values (nanomolar) in table 7 and are the average of at least three determinations.
# human Factor Xa = molecular target: T2, human Factor Xa (Homo sapiens, UniProt P00742); test: Inhibition constants for human factor Xa, chromogenic substrate assay; details: 25° C., Pefachrome FXa substrate, average of at least three determinations; read-out: Ki h FXa
# T2 construct: human Factor Xa from Enzyme Research Laboratories; purchased Enzyme Research Laboratories
# T2 sequence (P00742 235-488 limits assumed): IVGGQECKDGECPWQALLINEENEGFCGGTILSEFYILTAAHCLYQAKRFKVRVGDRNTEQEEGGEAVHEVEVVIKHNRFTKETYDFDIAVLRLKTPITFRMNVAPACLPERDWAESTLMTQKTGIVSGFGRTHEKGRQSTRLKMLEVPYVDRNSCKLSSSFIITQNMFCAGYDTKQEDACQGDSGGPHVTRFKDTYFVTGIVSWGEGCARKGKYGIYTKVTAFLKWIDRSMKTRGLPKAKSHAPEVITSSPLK
# T2 sequence (P00742 41-179 partner limits assumed): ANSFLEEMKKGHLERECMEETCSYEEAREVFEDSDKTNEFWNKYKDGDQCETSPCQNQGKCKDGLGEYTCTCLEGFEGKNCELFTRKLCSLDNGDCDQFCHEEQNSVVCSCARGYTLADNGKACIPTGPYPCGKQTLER
# Protocol: as §1, §2, §3
# [2] = molecular target: T3, Human Activated Protein C (h aPC) (Homo sapiens, UniProt P04070); test: Inhibition of human activated protein C (reference enzyme); details: Pefachrome PCa substrate
# T3 construct: purchased Enzyme Research Laboratories
# T3 sequence (P04070 212-450 limits assumed): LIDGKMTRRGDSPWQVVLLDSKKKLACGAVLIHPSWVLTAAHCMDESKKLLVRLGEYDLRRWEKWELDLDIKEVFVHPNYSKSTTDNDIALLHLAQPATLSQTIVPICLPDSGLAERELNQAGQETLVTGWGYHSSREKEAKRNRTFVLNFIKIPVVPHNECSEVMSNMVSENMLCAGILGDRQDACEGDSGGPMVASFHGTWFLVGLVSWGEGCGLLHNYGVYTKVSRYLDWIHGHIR
# T3 sequence (P04070 43-197 partner limits assumed): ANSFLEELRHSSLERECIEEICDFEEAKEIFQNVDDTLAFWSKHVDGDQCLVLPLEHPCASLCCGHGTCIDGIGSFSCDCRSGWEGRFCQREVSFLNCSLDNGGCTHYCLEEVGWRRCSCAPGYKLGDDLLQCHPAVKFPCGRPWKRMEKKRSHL
# Protocol: as §1, §3
# (§4) Dissociation constants were calculated as described herein.
# [3] = molecular target: T4, Human plasmin (h plasmin) (Homo sapiens, UniProt P00747); test: Inhibition of human plasmin (reference enzyme); details: Chromozym PL substrate
# T4 construct: purchased Calbiochem
# T4 sequence (P00747 581-810 limits assumed): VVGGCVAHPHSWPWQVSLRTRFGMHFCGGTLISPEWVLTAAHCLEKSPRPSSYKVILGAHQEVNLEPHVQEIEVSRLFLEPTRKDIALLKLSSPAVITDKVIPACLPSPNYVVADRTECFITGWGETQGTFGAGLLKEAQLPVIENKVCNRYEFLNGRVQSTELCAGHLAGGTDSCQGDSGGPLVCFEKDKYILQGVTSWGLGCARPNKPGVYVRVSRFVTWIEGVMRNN
# T4 sequence (P00747 97-580 partner limits assumed): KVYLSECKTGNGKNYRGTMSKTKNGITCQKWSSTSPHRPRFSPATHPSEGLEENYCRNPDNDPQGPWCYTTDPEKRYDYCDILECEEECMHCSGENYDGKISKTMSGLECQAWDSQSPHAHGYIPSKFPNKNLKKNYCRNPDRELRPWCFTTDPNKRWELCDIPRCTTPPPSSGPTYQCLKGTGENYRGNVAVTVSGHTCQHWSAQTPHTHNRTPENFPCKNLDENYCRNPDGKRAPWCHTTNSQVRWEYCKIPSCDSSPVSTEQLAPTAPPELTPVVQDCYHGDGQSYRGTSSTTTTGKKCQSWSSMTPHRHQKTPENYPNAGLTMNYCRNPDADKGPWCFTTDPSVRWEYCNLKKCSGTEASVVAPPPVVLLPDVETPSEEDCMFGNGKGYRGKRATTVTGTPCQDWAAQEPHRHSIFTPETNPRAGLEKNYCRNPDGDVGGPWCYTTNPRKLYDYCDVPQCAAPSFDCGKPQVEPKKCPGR
# Protocol: as §1, §3, §4
# [4] = molecular target: T5, Human tissue-type plasminogen activator (h t-PA) (Homo sapiens, UniProt P00750); test: Inhibition of human tissue-type plasminogen activator (reference enzyme); details: Pefachrome tPA substrate; read-out: Ki h t-PA
# T5 construct: purchased Boehringer Ingelheim Actilyse
# T5 sequence (P00750 36-562): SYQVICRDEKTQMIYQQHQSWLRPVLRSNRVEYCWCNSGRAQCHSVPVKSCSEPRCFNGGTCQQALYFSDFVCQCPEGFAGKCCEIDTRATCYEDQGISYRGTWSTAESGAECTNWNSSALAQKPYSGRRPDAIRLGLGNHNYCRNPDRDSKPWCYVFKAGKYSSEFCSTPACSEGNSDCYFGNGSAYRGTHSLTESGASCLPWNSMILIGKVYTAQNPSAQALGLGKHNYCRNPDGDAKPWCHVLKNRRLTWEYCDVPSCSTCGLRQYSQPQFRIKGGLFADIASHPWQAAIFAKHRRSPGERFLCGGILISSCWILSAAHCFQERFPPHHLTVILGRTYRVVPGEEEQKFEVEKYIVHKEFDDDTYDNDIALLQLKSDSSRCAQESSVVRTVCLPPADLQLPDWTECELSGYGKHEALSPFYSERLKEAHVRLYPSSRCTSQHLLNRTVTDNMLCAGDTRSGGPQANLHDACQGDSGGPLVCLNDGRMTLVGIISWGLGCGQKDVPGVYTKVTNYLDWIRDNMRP
# Protocol: The equilibrium rates were used to calculate the inhibitor/enzyme dissociation constant (Ki values) by parameter fitting in accordance with the rate equation for competitive inhibition using GraFit (version 4 from Erithacus).
# as §4
# [5] = molecular target: T6, Human urokinase type plasminogen activator (h u-PA) (Homo sapiens, UniProt P00749); test: Inhibition of human urokinase type plasminogen activator (reference enzyme); details: H-Glu-Gly-Arg-pNA substrate
# T6 construct: purchased MEDAC GmbH Urokinase HS medac
# Protocol: as §1, §3, §4
# [6] = molecular target: T7, Subcomponent "s" of Human Complement Component 1 (h C1s) (Homo sapiens, UniProt P09871); test: Inhibition of human C1s (reference enzyme); details: S-2314 substrate; read-out: Ki h Cls
# T7 construct: purchased Calbiochem
# T7 sequence (P09871 438-688 limits assumed): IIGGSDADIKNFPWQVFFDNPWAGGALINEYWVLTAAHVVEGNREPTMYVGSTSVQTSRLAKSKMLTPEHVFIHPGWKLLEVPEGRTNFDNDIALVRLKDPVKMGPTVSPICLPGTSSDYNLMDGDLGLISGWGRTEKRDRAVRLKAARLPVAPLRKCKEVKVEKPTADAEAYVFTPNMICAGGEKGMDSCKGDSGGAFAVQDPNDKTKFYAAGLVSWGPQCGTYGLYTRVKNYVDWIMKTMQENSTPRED
# T7 sequence (P09871 16-437 partner limits assumed): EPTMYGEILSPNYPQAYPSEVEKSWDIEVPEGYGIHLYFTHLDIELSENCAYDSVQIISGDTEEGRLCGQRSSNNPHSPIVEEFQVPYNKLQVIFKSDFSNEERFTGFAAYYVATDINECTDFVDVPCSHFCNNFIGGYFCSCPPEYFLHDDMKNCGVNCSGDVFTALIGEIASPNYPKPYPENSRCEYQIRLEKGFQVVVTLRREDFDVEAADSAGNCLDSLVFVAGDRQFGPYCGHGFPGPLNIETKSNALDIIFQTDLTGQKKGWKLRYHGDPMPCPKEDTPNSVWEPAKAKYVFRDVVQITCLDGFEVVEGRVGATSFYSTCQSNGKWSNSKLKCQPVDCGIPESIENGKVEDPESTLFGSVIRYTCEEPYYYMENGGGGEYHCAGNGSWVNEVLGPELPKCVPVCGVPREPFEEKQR
# Protocol: as §1, §3, §4
# [7] = molecular target: T8, Subcomponent "r" of Human Complement Component 1 (h C1r) (Homo sapiens, UniProt P00736); test: Inhibition of human C1r (reference enzyme); details: S-2314 substrate; read-out: Ki h Clr
# T8 construct: purchased Calbiochem
# T8 sequence (P00736 464-705 limits assumed): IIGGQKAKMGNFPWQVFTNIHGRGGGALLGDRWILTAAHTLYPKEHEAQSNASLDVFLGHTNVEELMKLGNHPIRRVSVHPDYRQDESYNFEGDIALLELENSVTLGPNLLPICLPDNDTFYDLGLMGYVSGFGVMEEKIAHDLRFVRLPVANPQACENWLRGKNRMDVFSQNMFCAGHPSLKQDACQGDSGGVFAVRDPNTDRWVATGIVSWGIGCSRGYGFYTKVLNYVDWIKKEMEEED
# T8 sequence (P00736 18-463 partner limits assumed): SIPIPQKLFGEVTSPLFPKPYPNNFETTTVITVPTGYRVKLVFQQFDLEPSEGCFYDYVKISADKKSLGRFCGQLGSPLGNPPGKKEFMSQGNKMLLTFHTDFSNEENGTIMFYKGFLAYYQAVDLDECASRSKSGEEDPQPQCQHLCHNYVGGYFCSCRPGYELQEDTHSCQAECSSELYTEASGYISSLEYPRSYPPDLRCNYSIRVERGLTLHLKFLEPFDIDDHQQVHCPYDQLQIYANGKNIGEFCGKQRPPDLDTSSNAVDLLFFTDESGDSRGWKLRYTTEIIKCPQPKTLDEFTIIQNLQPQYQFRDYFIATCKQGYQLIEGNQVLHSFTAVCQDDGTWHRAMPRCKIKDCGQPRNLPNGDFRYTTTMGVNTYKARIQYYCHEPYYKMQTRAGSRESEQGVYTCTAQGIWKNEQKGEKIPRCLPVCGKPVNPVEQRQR
# Protocol: as §1, §3, §4
# [8] = molecular target: T9, Human urinary kallikrein (h uKK) (Homo sapiens, UniProt P06870); test: Inhibition of human urinary kallikrein (reference enzyme); details: S-2266 substrate
# T9 construct: purchased Lee Biosolutions
# T9 sequence (P06870 25-262): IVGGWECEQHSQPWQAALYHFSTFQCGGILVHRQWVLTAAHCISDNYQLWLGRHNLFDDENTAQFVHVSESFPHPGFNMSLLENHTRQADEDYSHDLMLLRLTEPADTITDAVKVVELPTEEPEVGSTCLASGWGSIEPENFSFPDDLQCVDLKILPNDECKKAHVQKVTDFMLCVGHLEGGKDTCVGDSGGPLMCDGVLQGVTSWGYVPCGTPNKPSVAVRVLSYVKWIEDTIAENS
# Protocol: as §1, §3, §4
# [9] = molecular target: T10, Human plasma kallikrein (h PK) (Homo sapiens, UniProt P03952); test: Inhibition of human plasma kallikrein (reference enzyme); details: S2302 substrate
# T10 construct: purchased Enzyme Research Laboratories
# T10 sequence (P03952 391-638 limits assumed): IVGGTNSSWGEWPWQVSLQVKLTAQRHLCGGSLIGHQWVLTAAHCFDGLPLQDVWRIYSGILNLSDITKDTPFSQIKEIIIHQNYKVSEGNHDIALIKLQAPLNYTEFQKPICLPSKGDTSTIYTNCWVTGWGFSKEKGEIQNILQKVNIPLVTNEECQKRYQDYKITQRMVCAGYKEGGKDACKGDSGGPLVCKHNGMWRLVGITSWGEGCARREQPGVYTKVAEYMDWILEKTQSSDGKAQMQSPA
# T10 sequence (P03952 20-390 partner limits assumed): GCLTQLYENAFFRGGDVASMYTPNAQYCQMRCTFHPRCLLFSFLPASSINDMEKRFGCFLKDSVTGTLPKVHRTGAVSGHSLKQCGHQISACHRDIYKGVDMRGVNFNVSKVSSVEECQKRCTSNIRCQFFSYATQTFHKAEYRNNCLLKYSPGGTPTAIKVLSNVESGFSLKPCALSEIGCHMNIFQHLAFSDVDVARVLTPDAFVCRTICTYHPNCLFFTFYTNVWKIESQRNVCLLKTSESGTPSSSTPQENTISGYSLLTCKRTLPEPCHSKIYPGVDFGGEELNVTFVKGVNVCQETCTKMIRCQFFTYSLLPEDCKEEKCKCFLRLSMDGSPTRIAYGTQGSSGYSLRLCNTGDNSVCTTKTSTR
# Protocol: as §1, §3, §4
compound,measurement,setting,value
CC(=O)N1CCC(N(C)C(=O)CC[C@@H](NS(=O)(=O)Cc2ccccc2)C(=O)N2CCC[C@H]2C(=O)NCc2cc(Cl)ccc2CN)CC1 [Compound 2.28],Ki,[1],0.57 nM
same,Ki,human Factor Xa,36 nM
same,Ki,[2],> 50 µM
same,Ki,[3],5.56 µM
same,Ki,[4],> 100 µM
same,Ki,[5],> 20 µM
same,Ki,[6],> 20 µM
same,Ki,[7],> 100 µM
same,Ki,[8],> 100 µM
NCc1ccc(Cl)cc1CNC(=O)[C@@H]1CCCN1C(=O)[C@@H](CCC(=O)O)NS(=O)(=O)Cc1ccccc1 [Compound 2.29],Ki,[1],3.3 nM
same,Ki,human Factor Xa,93 nM
same,Ki,[2],> 25 µM
same,Ki,[3],> 15 µM
same,Ki,[9],> 20000 nM
same,Ki,[4],> 20 µM
same,Ki,[5],> 100 µM
same,Ki,[6],> 50 µM
same,Ki,[7],> 10 µM
NCc1ccc(Cl)cc1CNC(=O)[C@@H]1CCCN1C(=O)[C@@H](CC(=O)N1CCOCC1)NS(=O)(=O)Cc1ccccc1 [Compound 2.36],Ki,[1],0.34 nM
same,Ki,human Factor Xa,0.38 nM
same,Ki,[2],> 100 µM
same,Ki,[3],> 12 µM
same,Ki,[9],565 nM
same,Ki,[4],18 µM
same,Ki,[5],> 40 µM
same,Ki,[6],> 100 µM
same,Ki,[7],> 30 µM
NCc1ccc(Cl)cc1CNC(=O)[C@@H]1CCCN1C(=O)[C@@H](CC(=O)N1CCSCC1)NS(=O)(=O)Cc1ccccc1 [Compound 2.37],Ki,[1],0.49 nM
same,Ki,human Factor Xa,0.54 nM
same,Ki,[2],> 40 µM
same,Ki,[3],6 µM
same,Ki,[9],413 nM
same,Ki,[4],19 µM
same,Ki,[5],> 20 µM
same,Ki,[6],> 80 µM
same,Ki,[7],> 200 µM
NCc1ccc(Cl)cc1CNC(=O)[C@@H]1CCCN1C(=O)[C@@H](CC(=O)N1CC[S+]([O-])CC1)NS(=O)(=O)Cc1ccccc1 [Compound 2.38],Ki,[1],7.8 nM
same,Ki,human Factor Xa,5.5 nM
same,Ki,[2],> 50 µM
same,Ki,[9],614 nM
same,Ki,[4],> 20 µM
same,Ki,[5],> 60 µM
same,Ki,[6],> 80 µM
same,Ki,[7],> 200 µM
NCc1ccc(Cl)cc1CNC(=O)[C@@H]1CCCN1C(=O)[C@@H](CC(=O)N1CCS(=O)(=O)CC1)NS(=O)(=O)Cc1ccccc1 [Compound 2.39],Ki,[1],18.6 nM
same,Ki,human Factor Xa,15.4 nM
same,Ki,[2],> 0.5 µM
CC(=O)N1CCN(C(=O)C[C@@H](NS(=O)(=O)Cc2ccccc2)C(=O)N2CCC[C@H]2C(=O)NCc2cc(Cl)ccc2CN)CC1 [Compound 2.40],Ki,[1],6.3 nM
same,Ki,human Factor Xa,2.4 nM
same,Ki,[2],> 100 µM
same,Ki,[3],9 µM
same,Ki,[9],478 nM
same,Ki,[4],> 20 µM
same,Ki,[5],> 50 µM
same,Ki,[6],> 80 µM
same,Ki,[7],> 50 µM
"NCc1ccc(Cl)cc1CNC(=O)[C@@H]1CCCN1C(=O)[C@@H](CC(=O)Nc1cc[n+]([O-])cc1)NS(=O)(=O)Cc1ccccc1 [Compound 2.48, Bzls-D-Asp(1-oxido-4-amino-pyridine)-L-Pro-Amb(2-AMe-5-Cl)]",Ki,[1],2.5 nM
same,Ki,human Factor Xa,17 nM
same,Ki,[2],> 10 µM
same,Ki,[9],800 nM
same,Ki,[4],26.8 µM
same,Ki,[5],> 100 µM
same,Ki,[6],> 20 µM
same,Ki,[7],> 100 µM
same,Ki,[8],> 100 µM

# Source: patent publication US8497245B2, “Trypsin-like serine protease inhibitors, their preparation and use as selective inhibitors of the clotting factors IIa and Xa” (The Medicines Company (Leipzig) GmbH, priority 2010, dated 2013)
